PMC12156367, “Synthesis and Biological Evaluation of Seco-Coumarin/Furoxan Hybrids as Potent Anti-Tumor Agents to Overcome Multidrug Resistance via Multiple Mechanisms” (Molecules, 2025)

Experiments:
[1] = Solubility experiment (HPLC) in water/acetonitrile; type: physicochemical; settings: in water/acetonitrile (table title)
Protocol: Wavelength: 254 nm; flow rate: 1.0 mL/min; column temperature: 25 °C. Mobile phase: Phase A: water, Phase B: acetonitrile (Table 5).
Compounds were dissolved in chromatographic-grade acetonitrile and diluted to concentrations of 200, 100, 50, 25, 12.5, and 6.25 µg/mL. A standard curve was plotted using the peak area under the curve (AUC) versus concentration. […] The supernatant was filtered through an ultrafiltration membrane and then subjected to HPLC analysis. The solubility of the target compound was determined by substituting the AUC of the test compound into the standard curve. Each measurement was performed in triplicate.

[2] = system: MCF-7/ADR (doxorubicin-resistant human breast cancer cell line); assay: In vitro antiproliferative assay (MTT, 48 h), MCF-7/ADR; type: cell-based; settings: for Selectivity Ratio IC50(MCF-7)/ IC50(MCF-7/ADR): collateral sensitivity; for IC50: Homo sapiens, NCI/ADR-RES, MTT, 48 h, mean of three determinations
Source text: The MDA-MB-468 cell line was procured from the Cell Bank of the Chinese Academy of Sciences. The MCF-7, MCF-7/ADR, MCF-10A, and MDA-MB-231 cell lines were kindly provided by Professor Xianyi Sha (Fudan University, Shanghai, China). The HUVEC cells were kindly provided by Associate Professor Hulie Zeng (Fudan University, Shanghai, China). The MDA-MB-468, MDA-MB-231, MCF-7, MCF-10A, and HUVEC cells were cultivated in DMEM (Service Biotechnology, China) supplemented with 10% FBS (Capricorn Scientific, Germany) and 1% penicillin-streptomycin (Meilunbio, Dalian, China). For the MCF-7/ADR cells, they were cultured in RPMI-1640 (Service Biotechnology, Wuhan, China), containing 10% FBS and 1% penicillin-streptomycin. Additionally, 500 ng/mL of doxorubicin (Sigma-Aldrich, Saint Louis, MO, USA) was incorporated into the RPMI-1640 culture medium to keep drug resistance. All cell lines were cultured in a humidified incubator at 37 °C with a 5% CO2 atmosphere.
Following harvest during logarithmic growth, cells were plated in 96-well culture plates at an initial density of 5000 cells per well. Incubate the plate overnight at 37 °C to allow the cells to adhere. Following the overnight incubation, introduce the compound at the predetermined concentration into each well, and then return the plate to the incubator for an additional 48 h culture period. After the 48 h treatment, carefully aspirate the drug-containing medium from each well. Subsequently, add 150 μL of 0.5 mg/mL MTT (Beyotime, China) solution to each well. Protect the plate from light and incubate it at 37 °C for 4 h to allow the formation of formazan crystals. Finally, add 150 μL of DMSO (Sinopharm, China) to each well and gently mix to ensure complete dissolution of the formazan crystals. The OD value at 570nm was measured using a microplate reader (Thermo Fisher, Waltham, MA, USA). Cell proliferation inhibition was determined using the following formula:Inhibition (%) = [(ODDMSO − ODcompd.)/(ODDMSO − ODblank)] × 100
GraphPad Prism software 9 was used to calculate the IC50 values. The specific calculation process is as follows: Firstly, we input the experimental data into Prism. The data include the concentrations of the experimental compounds and the corresponding biological response values. For instance, in the cell experiment, we recorded the cell viability values at different drug concentrations. Subsequently, we select the option of “Dose–Response–Nonlinear Regression” in the “Analyze” menu for curve fitting. Generally speaking, we use the model of “[Inhibitor] vs. normalized response—Variable slope”. The Prism software fits the data through the nonlinear least squares method and finds the parameter values that can minimize the difference between the model’s predicted values and the actual data. After completing the curve fitting, the software will directly provide the estimated values and confidence intervals of the IC50 value and other relevant parameters. Meanwhile, it will also offer goodness-of-fit indices, such as the correlation coefficient, to evaluate the quality of the fitting. Through the above method, we can accurately calculate the IC50 value, thereby assessing the intensity of the inhibitory or activating effect of the compound on the biological system.

Q: For `COc1cc(OCCCOc2no[n+]([O-])c2S(=O)(=O)c2ccccc2)ccc1C(=O)C=Cc1ccccc1` [Compound 6a, 4-(3-(4-cinnamoyl-3-methoxyphenoxy)propoxy)-3-(phenylsulfonyl)-1,2,5-oxadiazole 2-oxide], which Solubility [1] is on record?
A: 60.8 ± 7.2%

Q: What about the “Selectivity Ratio IC50(MCF-7)/ IC50(MCF-7/ADR)” value [2] of the same compound?
A: 432.6

Q: For `COc1cc(OCCCOc2no[n+]([O-])c2S(=O)(=O)c2ccccc2)ccc1C(=O)/C=C/c1ccc(F)cc1` [Compound 6b, (E)-4-(3-(4-(3-(4-fluorophenyl)acryloyl)-3-methoxyphenoxy)propoxy)-3-(phenylsulfonyl)-1,2,5-oxadiazole 2-oxide], which Solubility [1] is on record?
A: 45.8 ± 3.4%

Q: And the “Selectivity Ratio IC50(MCF-7)/ IC50(MCF-7/ADR)” value [2]?
A: 286.6

Q: Which Solubility [1] does the source give for `COc1ccc(/C=C/C(=O)c2ccc(OCCOc3no[n+]([O-])c3S(=O)(=O)c3ccccc3)cc2OC)cc1` [Compound 6c, (E)-4-(2-(3-methoxy-4-(3-(4-methoxyphenyl)acryloyl)phenoxy)ethoxy)-3-(phenylsulfonyl)-1,2,5-oxadiazole 2-oxide] here?
A: 37.7 ± 5.2%

Q: What about the “Selectivity Ratio IC50(MCF-7)/ IC50(MCF-7/ADR)” value [2] of the same compound?
A: 44.2

Q: What does the source list for `COc1cc(OCCOc2no[n+]([O-])c2S(=O)(=O)c2ccccc2)ccc1C(=O)/C=C/c1ccc(C#N)cc1` [Compound 6e, (E)-4-(2-(4-(3-(4-cyanophenyl)acryloyl)-3-methoxyphenoxy)ethoxy)-3-(phenylsulfonyl)-1,2,5-oxadiazole 2-oxide]?
A: Solubility [1]: 21.2 ± 3.3%; Selectivity Ratio IC50(MCF-7)/ IC50(MCF-7/ADR) [2]: 328.3

Q: Which Solubility [1] does the source give for `COc1cc(OCCCOc2no[n+]([O-])c2S(=O)(=O)c2ccccc2)ccc1C(=O)/C=C/c1ccc(C#N)cc1` [Compound 6f, (E)-4-(3-(4-(3-(4-cyanophenyl)acryloyl)-3-methoxyphenoxy)propoxy)-3-(phenylsulfonyl)-1,2,5-oxadiazole 2-oxide] here?
A: 67.2 ± 6.1%

Q: What about the “Selectivity Ratio IC50(MCF-7)/ IC50(MCF-7/ADR)” value [2] of the same compound?
A: 212.9

Q: Which Solubility [1] does the source give for `COc1cc(OCCOc2no[n+]([O-])c2S(=O)(=O)c2ccccc2)ccc1C(=O)CCc1ccccc1` [Compound 9a, 4-(2-(3-methoxy-4-(3-phenylpropanoyl)phenoxy)ethoxy)-3-(phenylsulfonyl)-1,2,5-oxadiazole 2-oxide] here?
A: 23.5 ± 4.1%

Q: And the “Selectivity Ratio IC50(MCF-7)/ IC50(MCF-7/ADR)” value [2]?
A: 1716.9

Q: With `COc1cc(OCCCOc2no[n+]([O-])c2S(=O)(=O)c2ccccc2)ccc1C(=O)CCc1ccccc1` [Compound 9b, 4-(3-(3-methoxy-4-(3-phenylpropanoyl)phenoxy)propoxy)-3-(phenylsulfonyl)-1,2,5-oxadiazole 2-oxide] as the compound, how does the Solubility [1] read?
A: 19.4 ± 3.1%

Q: What about the “Selectivity Ratio IC50(MCF-7)/ IC50(MCF-7/ADR)” value [2] of the same compound?
A: 1152.6

Q: For `COc1cc(OCCOc2no[n+]([O-])c2S(=O)(=O)c2ccccc2)ccc1C(=O)CCc1ccc(F)cc1` [Compound 9c, 4-(2-(4-(3-(4-fluorophenyl)propanoyl)-3-methoxyphenoxy)ethoxy)-3-(phenylsulfonyl)-1,2,5-oxadiazole 2-oxide], which Solubility [1] is on record?
A: 40.8 ± 8.2%

Q: What about the “Selectivity Ratio IC50(MCF-7)/ IC50(MCF-7/ADR)” value [2] of the same compound?
A: 137.1

Q: For `COc1cc(OCCCOc2no[n+]([O-])c2S(=O)(=O)c2ccccc2)ccc1C(=O)CCc1ccc(F)cc1` [Compound 9d, 4-(3-(4-(3-(4-fluorophenyl)propanoyl)-3-methoxyphenoxy)propoxy)-3-(phenylsulfonyl)-1,2,5-oxadiazole 2-oxide], which Solubility [1] is on record?
A: 117 ± 10.8%

Q: What about the “Selectivity Ratio IC50(MCF-7)/ IC50(MCF-7/ADR)” value [2] of the same compound?
A: 1394.2

Q: Which Solubility [1] does the source give for `COc1ccc(CCC(=O)c2ccc(OCCCOc3no[n+]([O-])c3S(=O)(=O)c3ccccc3)cc2OC)cc1` [Compound 9f, 4-(3-(3-methoxy-4-(3-(4-methoxyphenyl)propanoyl)phenoxy)propoxy)-3-(phenylsulfonyl)-1,2,5-oxadiazole 2-oxide] here?
A: 125 ± 9.2%

Q: What about the “Selectivity Ratio IC50(MCF-7)/ IC50(MCF-7/ADR)” value [2] of the same compound?
A: 943.2

Q: For `COc1cc(OCCCOc2no[n+]([O-])c2S(=O)(=O)c2ccccc2)ccc1C(C)=O` [Compound 12b, 4-(3-(4-acetyl-3-methoxyphenoxy)propoxy)-3-(phenylsulfonyl)-1,2,5-oxadiazole 2-oxide], which Solubility [1] is on record?
A: 384 ± 9.3%

Q: And the “Selectivity Ratio IC50(MCF-7)/ IC50(MCF-7/ADR)” value [2]?
A: 65.6

Q: Which Solubility [1] does the source give for `O=C(NCc1ccccc1)c1ccc(OCCOc2no[n+]([O-])c2S(=O)(=O)c2ccccc2)cc1O` [Compound 16a, 4-(2-(4-(benzylcarbamoyl)-3-hydroxyphenoxy)ethoxy)-3-(phenylsulfonyl)-1,2,5-oxadiazole 2-oxide] here?
A: 125 ± 7.1%

Q: What about the “Selectivity Ratio IC50(MCF-7)/ IC50(MCF-7/ADR)” value [2] of the same compound?
A: 7.2

Q: With `O=C(NCc1ccc(F)cc1)c1ccc(OCCOc2no[n+]([O-])c2S(=O)(=O)c2ccccc2)cc1O` [Compound 16b, 4-(2-(4-((4-fluorobenzyl)carbamoyl)-3-hydroxyphenoxy)ethoxy)-3-(phenylsulfonyl)-1,2,5-oxadiazole 2-oxide] as the compound, how does the Solubility [1] read?
A: 31.6 ± 6.8%

Q: What about the “Selectivity Ratio IC50(MCF-7)/ IC50(MCF-7/ADR)” value [2] of the same compound?
A: 27.8

Q: Which Solubility [1] does the source give for `Nc1ccc(CNC(=O)c2ccc(OCCOc3no[n+]([O-])c3S(=O)(=O)c3ccccc3)cc2O)cc1` [Compound 16c, 4-(2-(4-((4-aminobenzyl)carbamoyl)-3-hydroxyphenoxy)ethoxy)-3-(phenylsulfonyl)-1,2,5-oxadiazole 2-oxide] here?
A: 327 ± 11.6%

Q: And the “Selectivity Ratio IC50(MCF-7)/ IC50(MCF-7/ADR)” value [2]?
A: 95.4

Q: Which Solubility [1] does the source give for `O=C(NCc1ccc(C(F)(F)F)cc1)c1ccc(OCCOc2no[n+]([O-])c2S(=O)(=O)c2ccccc2)cc1O` [Compound 16d, 4-(2-(3-hydroxy-4-((4-(trifluoromethyl)benzyl)carbamoyl)phenoxy)ethoxy)-3-(phenylsulfonyl)-1,2,5-oxadiazole 2-oxide] here?
A: 61.1 ± 2.6%

Q: And the IC50 [2]?
A: 10.5 nM

Q: And the “Selectivity Ratio IC50(MCF-7)/ IC50(MCF-7/ADR)” value [2]?
A: 257.8

Q: Which results are given for `N#Cc1ccc(CNC(=O)c2ccc(OCCOc3no[n+]([O-])c3S(=O)(=O)c3ccccc3)cc2O)cc1` [Compound 16e, 4-(2-(4-((4-cyanobenzyl)carbamoyl)-3-hydroxyphenoxy)ethoxy)-3-(phenylsulfonyl)-1,2,5-oxadiazole 2-oxide]?
A: Solubility [1]: 33.8 ± 5.3%; IC50 [2]: 5.36 nM; Selectivity Ratio IC50(MCF-7)/ IC50(MCF-7/ADR) [2]: 561.9

Q: With `O=C(NCc1ccc(O)cc1)c1ccc(OCCOc2no[n+]([O-])c2S(=O)(=O)c2ccccc2)cc1O` [Compound 16f, 4-(2-(3-hydroxy-4-((4-hydroxybenzyl)carbamoyl)phenoxy)ethoxy)-3-(phenylsulfonyl)-1,2,5-oxadiazole 2-oxide] as the compound, how does the Solubility [1] read?
A: 81.0 ± 7.9%

Q: What about the “Selectivity Ratio IC50(MCF-7)/ IC50(MCF-7/ADR)” value [2] of the same compound?
A: 64.4

Q: Which results are given for `COc1cc(OCCOc2no[n+]([O-])c2S(=O)(=O)c2ccccc2)ccc1C(=O)NCc1ccccc1` [Compound 18a, 4-(2-(4-(benzylcarbamoyl)-3-methoxyphenoxy)ethoxy)-3-(phenylsulfonyl)-1,2,5-oxadiazole 2-oxide]?
A: Solubility [1]: 70.3 ± 6.1%; Selectivity Ratio IC50(MCF-7)/ IC50(MCF-7/ADR) [2]: 47.8

Q: Which Solubility [1] does the source give for `COc1cc(OCCOc2no[n+]([O-])c2S(=O)(=O)c2ccccc2)ccc1C(=O)NCc1ccc(F)cc1` [Compound 18b, 4-(2-(4-((4-fluorobenzyl)carbamoyl)-3-methoxyphenoxy)ethoxy)-3-(phenylsulfonyl)-1,2,5-oxadiazole 2-oxide] here?
A: 60.9 ± 9.8%

Q: And the “Selectivity Ratio IC50(MCF-7)/ IC50(MCF-7/ADR)” value [2]?
A: 101.7

Q: For `COc1cccc2c1C(=O)c1c(O)c3c(c(O)c1C2=O)C[C@@](O)(C(=O)CO)C[C@@H]3O[C@H]1C[C@H](N)[C@H](O)[C@H](C)O1` [doxorubicin, reference compound], which “Selectivity Ratio IC50(MCF-7)/ IC50(MCF-7/ADR)” value [2] is on record?
A: 0.008
